As a reminder, the IC50 is the midpoint of a concentration-inhibition curve. Low values mean higher potency, high ones lower potency.

Experimental findings from ChEMBL document CHEMBL1148588, “Anthrax lethal factor protease inhibitors: synthesis, SAR, and structure-based 3D QSAR studies” (J Med Chem, 2006) are described below.

Molecules are shown by their SMILES.

This assay deals with T1, Lethal factor (Bacillus anthracis, UniProt P15917).
T1 sequence (P15917 whole entry): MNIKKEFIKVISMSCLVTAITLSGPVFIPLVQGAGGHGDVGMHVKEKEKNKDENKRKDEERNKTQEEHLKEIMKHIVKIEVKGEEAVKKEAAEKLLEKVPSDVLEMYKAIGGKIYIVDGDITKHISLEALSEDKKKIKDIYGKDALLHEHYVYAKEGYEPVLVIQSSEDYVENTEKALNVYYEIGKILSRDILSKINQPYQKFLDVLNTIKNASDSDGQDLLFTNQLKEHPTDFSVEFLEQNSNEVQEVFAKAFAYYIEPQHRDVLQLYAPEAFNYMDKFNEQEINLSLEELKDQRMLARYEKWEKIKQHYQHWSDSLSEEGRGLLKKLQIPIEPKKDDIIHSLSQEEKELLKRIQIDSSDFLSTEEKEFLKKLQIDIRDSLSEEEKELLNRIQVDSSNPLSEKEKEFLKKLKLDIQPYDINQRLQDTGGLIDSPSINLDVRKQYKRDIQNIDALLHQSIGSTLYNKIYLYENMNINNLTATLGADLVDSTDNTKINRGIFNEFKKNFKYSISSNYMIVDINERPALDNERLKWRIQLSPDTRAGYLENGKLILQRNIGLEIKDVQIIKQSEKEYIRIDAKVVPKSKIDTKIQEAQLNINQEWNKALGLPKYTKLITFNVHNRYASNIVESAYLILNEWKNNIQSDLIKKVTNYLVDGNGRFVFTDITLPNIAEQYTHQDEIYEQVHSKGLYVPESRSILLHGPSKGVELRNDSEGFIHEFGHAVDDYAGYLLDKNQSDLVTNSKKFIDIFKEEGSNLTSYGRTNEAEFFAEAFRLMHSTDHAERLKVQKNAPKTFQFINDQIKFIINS
Nature of the assay: Inhibitory activity against anthrax lethal factor metalloprotease.

Turning to `O=C(O)CN1C(=O)S/C(=C\c2ccc(-c3ccc(Cl)cc3[N+](=O)[O-])o2)C1=O`, the IC50 was 0.5 µM.
For the molecule `O=C(O)CN1C(=O)S/C(=C\c2ccc(-c3cc(C(F)(F)F)ccc3Cl)o2)C1=O`, 5.9 µM corresponded to half-maximal inhibition (IC50).
In the case of `CN1/C(=C/c2ccc(-c3ccc(Cl)cc3)o2)C(=O)NC1NC(=O)O` (stereo not given), the concentration for half-maximal inhibition (IC50) was greater than 100 µM and the “Log IC50” value was greater than -4.
Molecule `O=C(O)CN1C(=O)/C(=C/c2ccc(-c3ccc(I)cc3)o2)SC1=S` yielded an IC50 of 5.6 µM. This lies in the single-digit micromolar range.
